In US20250066290A1, “DHODH INHIBITORS CONTAINING A CARBOXYLIC ACID BIOISOSTERE” (IMMUNIC AG, priority 2021, published 2025):
Read-outs that look alike come from different tables or passages of the source.

Experiments:
[1] = target: N-terminally truncated recombinant hDHODH enzyme (Homo sapiens, UniProt Q02127); test: biochemical; type: biochemical
Experimental: Briefly, the hDHODH concentration was adjusted in a way that an average slope of approximately 0.2 AU/min served as the positive control (e.g. without inhibitor). The standard assay mixture contained 60 μM 2,6-dichloroindophenol, 50 μM decylubiquinone and 100 μM dihydroorotate. The hDHODH enzyme with or without at least six different concentrations of the compounds was added and measurements were performed in 50 mM TrisHCl, 150 mM KCl and 0.1% Triton X-100 at pH 8.0 and at 30° C. The reaction was started by adding dihydroorotate and measuring the absorption at 600 nm for 2 min. For the determination of the IC50 values, each data point was recorded in triplicate. […].

SARS-CoV-2 = SARS-CoV-2 viral replication (YFP) assay; type: cell-based; details: Severe acute respiratory syndrome coronavirus 2, read-out: EC50 range
[2] = Mouse pharmacokinetics, female, deuteration matched pair analysis; type: in vivo, mice (C57BL/6J)
Experimental: In another matched pair analysis the benefit of deuteration of the N-methoxyacetamide moiety was tested: the pharmacokinetic properties of the compounds were evaluated in 3 female mice (C57BL/6J, 8 week old) after oral or intravenous cassette dosing to assess the oral bioavailability. Dose was 5 mg/kg (oral) and 1 mg/kg (intravenous), application volume was 5 mL/kg (oral) and 2 mL/kg (intravenous), vehicle was 5% solutol, 95% NaCl solution (at 0.9% saline concentration) for oral and 5% solutol, 5% ethanol, 90% NaCl solution (at 0.9% saline concentration) for intravenous application. At each designated time point (0.25, 0.5, 1, 2, 4 and 8 h after dosing for oral; 0.083, 0.25, 0.5, 1, 4 and 8 h after dosing for intravenous), 20 μL whole blood were collected from the tail vein into Li-heparin tubes, frozen on dry ice within 1-2 minutes of sampling and stored at −20° C. until processed for LC-MS analysis.

[3] = human DHODH assay, read-out: IC50 range

N-terminally truncated recombinant hDHODH enzyme, sequence (Q02127 whole entry, looked up, the tested form may be a part): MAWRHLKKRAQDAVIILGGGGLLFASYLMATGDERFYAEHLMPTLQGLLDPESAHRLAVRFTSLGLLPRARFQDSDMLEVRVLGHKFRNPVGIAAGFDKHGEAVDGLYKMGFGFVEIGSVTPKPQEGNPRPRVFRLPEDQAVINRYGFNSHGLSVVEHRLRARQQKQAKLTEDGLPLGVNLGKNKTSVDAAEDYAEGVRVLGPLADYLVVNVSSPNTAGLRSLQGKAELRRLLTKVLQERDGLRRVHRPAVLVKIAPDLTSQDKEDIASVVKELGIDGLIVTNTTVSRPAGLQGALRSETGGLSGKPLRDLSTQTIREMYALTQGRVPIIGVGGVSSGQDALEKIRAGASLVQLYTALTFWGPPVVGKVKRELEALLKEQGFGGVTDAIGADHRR

Row | Compound | IC50 [1] | EC50 (SARS-CoV-2) | IC50 [1, 3] | also measured
1 | [2H]C([2H])([2H])Oc1cccc(-c2cc(F)c(NC(=O)C3=C(C(=O)NOCCO)CCC3)c(F)c2)c1 [Example 4/1] | 1000 to 10000 nM | < 10000 nM | – | –
2 | [2H]C([2H])([2H])Oc1cccc(-c2c(F)c(F)c(NC(=O)C3=C(C(=O)NOC)CSC3)c(F)c2F)c1 [Example 6/1] | – | < 1000 nM | < 100 nM | –
3 | [2H]C([2H])([2H])Oc1cccc(-c2cc(F)c(NC(=O)c3ccsc3C(=O)NOC)c(F)c2F)c1 [9/5] | – | < 1000 nM | < 100 nM | –
4 | [2H]C([2H])([2H])Oc1cccc(-c2cc(F)c(NC(=O)C3=C(C(=O)NOCC#N)CCC3)c(F)c2)c1 [Example 4/3] | 1000 to 10000 nM | 10000 to 25000 nM | – | –
5 | [2H]C([2H])([2H])Oc1cccc(-c2c(F)c(F)c(NC(=O)C3=C(C(=O)NOCCO)CCC3)c(F)c2F)c1 [4/23] | – | < 1000 nM | < 100 nM | –
6 | [2H]C([2H])([2H])ONC(=O)c1cscc1C(=O)Nc1c(F)c(F)c(-c2ccccc2OC([2H])([2H])[2H])c(F)c1F [4/32] | – | < 1000 nM | < 100 nM | –
7 | [2H]C([2H])([2H])Oc1cccc(-c2c(F)c(F)c(NC(=O)C3=C(C(=O)NS(N)(=O)=O)COC3)c(F)c2F)c1 [Example 2-1/1] | – | 10000 to 25000 nM | < 100 nM | –
8 | [2H]C([2H])([2H])Oc1cccc(-c2cc(F)c(NC(=O)C3=C(C(=O)NS(C)(=N)=O)CCC3)c(F)c2)c1 (centres unmarked) [1/4] | – | > 50000 nM | < 100 nM | –
9 | [2H]C([2H])([2H])Oc1cccc(-c2cc(F)c(NC(=O)C3=C(C(=O)NS(=O)(=O)C4(C)CC4)CCC3)c(F)c2)c1 [1/2] | – | 10000 to 25000 nM | > 10000 nM | –
10 | [2H]C([2H])([2H])Oc1ccccc1-c1c(F)c(F)c(NC(=O)C2=C(C(=O)NS(N)(=O)=O)CCC2)c(F)c1F [2/4] | – | < 10000 nM | < 100 nM | –
11 | [2H]C([2H])([2H])Oc1cccc(-c2cc(F)c(NC(=O)C3=C(C(=O)NOCCF)CCC3)c(F)c2)c1 [4/2] | 100 to 1000 nM | < 10000 nM | – | –
12 | [2H]C([2H])([2H])ONC(=O)c1cscc1C(=O)Nc1c(F)c(F)c(-c2cccc(OC([2H])([2H])[2H])c2)c(F)c1F [4/31] | – | < 1000 nM | < 100 nM | –
13 | [2H]C([2H])([2H])Oc1cccc(-c2c(F)c(F)c(NC(=O)c3ccsc3C(=O)NOCCO)c(F)c2F)c1 [9/7] | – | < 1000 nM | < 100 nM | –
14 | [2H]C([2H])([2H])Oc1cccc(-c2cc(F)c(NC(=O)C3=C(C(=O)NS(N)(=O)=O)COC3)c(F)c2)c1 [Example 2-1, N^3-(3,5-Difluoro-3′-(methoxy-d3)-[1,1′-biphenyl]-4-yl)-N^4-sulfamoyl-2,5-dihydrofuran-3,4-di-carboxamide] | 100 to 1000 nM | 10000 to 25000 nM | – | –
15 | [2H]C([2H])([2H])ONC(=O)c1sccc1C(=O)Nc1c(F)c(F)c(-c2cccc(OC([2H])([2H])[2H])c2)c(F)c1F [9/6] | – | < 1000 nM | < 100 nM | AUC(0-t) ([2]; C57BL/6J, mouse, in vivo, female mice, 0 to 8 h): 25000 ng·h/mL; Cmax ([2]; C57BL/6J, mouse, in vivo, female mice, 5 mg/kg oral, 1 mg/kg intravenous cassette): 6700 ng/mL; F ([2]; female mice, bioavailability): 76%; half-life ([2]; female, C57BL/6J, mouse, in vivo): 2.5 h
16 | [2H]C([2H])([2H])Oc1cccc(-c2ccc(NC(=O)C3=C(C(=O)NOC)CCC3)c3cnccc23)c1 [4/11] | – | 25000 to 50000 nM | > 10000 nM | –
17 | [2H]C([2H])([2H])Oc1cccc(-c2c(F)cc(NC(=O)c3ccsc3C(=O)NOC)cc2F)c1 [9/3] | – | < 1000 nM | < 100 nM | –
18 | [2H]C([2H])([2H])Oc1ccccc1-c1c(F)c(F)c(NC(=O)C2=C(C(=O)NOCCO)CCC2)c(F)c1F [4/27] | 100 to 1000 nM | < 1000 nM | – | –
19 | [2H]C([2H])([2H])Oc1cccc(-c2cnc(NC(=O)C3=C(C(=O)NOC)CCC3)c(F)c2)c1 [Example 8, N^1-(3-Fluoro-5-(3-(methoxy-d3)phenyl)pyridin-2-yl)-N^2-methoxycyclopent-1-ene-1,2-dicarboxamide] | 1000 to 10000 nM | > 50000 nM | – | –
20 | [2H]C([2H])([2H])Oc1cccc(-c2c(F)c(F)c(NC(=O)c3ccoc3C(=O)NOC)c(F)c2F)c1 [Example 10/1] | – | < 1000 nM | < 100 nM | –
21 | [2H]C([2H])([2H])Oc1cccc(-c2c(F)c(F)c(NC(=O)C3=C(C(=O)NS(N)(=O)=O)CC(F)(F)C3)c(F)c2F)c1 [2/5] | – | < 1000 nM | < 100 nM | –

Row | Compound | IC50 [1] | EC50 (SARS-CoV-2) | IC50 [1, 3] | also measured
22 | [2H]C([2H])([2H])Oc1ccccc1-c1c(F)c(F)c(NC(=O)C2=C(C(=O)NOC)CCC2)c(F)c1F [4/26] | – | < 1000 nM | < 100 nM | –
23 | [2H]c1c([2H])c([2H])c(-c2c(F)c(F)c(NC(=O)C3=C(C(=O)NOC([2H])([2H])[2H])COC3)c(F)c2F)c([2H])c1[2H] [Example 5/1] | – | < 1000 nM | < 100 nM | –
24 | [2H]C([2H])([2H])Oc1cccc(-c2c(F)c(F)c(NC(=O)c3cscc3C(=O)NS(N)(=O)=O)c(F)c2F)c1 [2/6] | – | < 10000 nM | < 100 nM | –
25 | [2H]C([2H])([2H])Oc1cccc(-c2cc(F)c(NC(=O)C3=C(C(=O)NOC)CCC3)c(C#N)c2)c1 [8/3] | 1000 to 10000 nM | < 10000 nM | – | –
26 | [2H]C([2H])([2H])Oc1cccc(-c2cc(F)c(NC(=O)C3=C(/C(N)=N/O)CCC3)c(F)c2)c1 [Example 3-1, (Z)—N-(3,5-Difluoro-3′-(methoxy-d3)-[1,1′-biphenyl]-4-yl)-2-(N-hydroxycarbamimid-oyl)cyclopent-1-ene-1-carboxamide] | > 10000 nM | < 10000 nM | – | –
27 | [2H]C([2H])([2H])Oc1cccc(-c2c(F)c(F)c(NC(=O)c3c[nH]cc3C(=O)NOC)c(F)c2F)c1 [4/30] | 100 to 1000 nM | < 10000 nM | – | –
28 | [2H]C([2H])([2H])Oc1cccc(-c2c(F)c(F)c(NC(=O)c3cocc3C(=O)NOC)c(F)c2F)c1 [Example 16/1] | – | < 1000 nM | < 100 nM | –
29 | [2H]C([2H])([2H])Oc1cccc(-c2cc(F)c(NC(=O)C3=C(C(=O)NOC)CCC3)c(OC([2H])([2H])[2H])c2)c1 [8/2] | 1000 to 10000 nM | < 10000 nM | – | –
30 | [2H]C([2H])([2H])Oc1cccc(-c2c(F)c(F)c(NC(=O)c3sc(C)cc3C(=O)NOC)c(F)c2F)c1 [Example 17-2, N3-methoxy-5-methyl-N2-(2,3,5,6-tetrafluoro-3′-(methoxy-d3)-[1,1′-biphenyl]-4-yl)thiophene-2,3-dicarboxamide] | – | < 1000 nM | < 100 nM | –
31 | [2H]C([2H])([2H])Oc1ccccc1-c1cc(F)c(NC(=O)C2=C(C(=O)NS(C)(=O)=O)CCC2)c(F)c1 [1/6] | – | 25000 to 50000 nM | < 100 nM | –
32 | [2H]C([2H])([2H])Oc1cccc(-c2ccc(NC(=O)c3ccsc3C(=O)NOC)c(F)c2F)c1 [9/4] | – | < 1000 nM | < 100 nM | –
33 | [2H]C([2H])([2H])Oc1cccc(-c2c(F)c(F)c(NC(=O)C3=C(C(=O)NOCCO)CSC3)c(F)c2F)c1 [6/2] | – | < 10000 nM | < 100 nM | –
34 | [2H]C([2H])([2H])ONC(=O)C1=C(C(=O)Nc2c(F)c(F)c(-c3cccc(OC([2H])([2H])[2H])c3)c(F)c2F)CCC1 [4/22] | – | < 1000 nM | < 100 nM | –
35 | [2H]C([2H])([2H])ONC(=O)c1sccc1C(=O)Nc1c(F)cc(-c2cccc(OC([2H])([2H])[2H])c2)cc1F [9/2] | – | < 1000 nM | < 100 nM | –
36 | [2H]C([2H])([2H])Oc1cccc(-c2cc(F)c(N(C)C(=O)C3=C(C(=O)NOC)CCC3)c(F)c2)c1 [Example 13, N1-(3,5-Difluoro-3′-(methoxy-d3)-[1,1′-biphenyl]-4-yl)-N2-methoxy-N1-methylcyclopent-1-ene-1,2-dicarboxamide] | > 10000 nM | 10000 to 25000 nM | – | –
37 | [2H]C([2H])([2H])Oc1cccc(-c2cc(F)c(NC(=O)c3sccc3C(=O)NOC)c(F)c2)c1 [Example 10, N^2-(3,5-Difluoro-3′-(methoxy-d3)-[1,1′-biphenyl]-4-yl)-N^3-methoxythiophene-2,3-dicarboxamide] | < 100 nM | < 1000 nM | – | –
38 | [2H]C([2H])([2H])Oc1cccc(-c2c(F)c(F)c(NC(=O)C3=C(c4nn[nH]n4)COC3)c(F)c2F)c1 [Example 3/1] | 1000 to 10000 nM | 25000 to 50000 nM | – | –
39 | [2H]C([2H])([2H])Oc1cccc(-c2c(F)c(F)c(NC(=O)C3=C(C(=O)NOCCO)COC3)c(F)c2F)c1 [5/6] | 100 to 1000 nM | < 10000 nM | – | –
40 | [2H]C([2H])([2H])Oc1ccccc1-c1c(F)c(F)c(NC(=O)C2=C(C(=O)NOCCO)CSC2)c(F)c1F [6/3] | – | < 1000 nM | < 100 nM | –
41 | [2H]C([2H])([2H])Oc1cccc(-c2cc(F)c(NC(=O)C3=C(C(=O)NOC)COC3)c(F)c2)c1 [Example 5, N^3-(3,5-Difluoro-3′-(methoxy-d3)-[1,1′-biphenyl]-4-yl)-N^4-methoxy-2,5-dihydrofuran-3,4-dicarboxamide] | 100 to 1000 nM | < 10000 nM | – | –
